Structures are written as SMILES.

Data set [1] can be described thus: Solubility of spin trap. Format: physicochemical.
A short description of data set [2]: Effect of sulphite on the EPR signal of the DBNBS radical cation (DBNBS reacted with plasma or urine). The arrangement: species or system human. As to the method:
The characteristic spectrum of DBNBS-SO3^●− was a 9 line signal with an aN=1.32 mT and aH=0.06 mT (FIG. 8). This was obtained by reacting DBNBS with hydrogen peroxide and horseradish peroxidase. The addition of 10 mM sulphite to the reaction mixture caused the signal to increase by over 100 fold in intensity. The signal could also be obtained by reacting DBNBS with sulphite alone. However, when the DBNBS was reacted with the plasma of patients with renal failure and the urine from a normal individual, only the 3 line signal with an aN=1.32 mT was seen (FIGS. 7 & 9, respectively). The hydrogen hyperfine splitting seen in the spectrum of DBNBS-SO3^●− was absent. […] Therefore, we confirmed that DBNBS-SO3^●− and the DBNBS radical cation generated by renal patients' plasma or normal urine were completely different radicals.
Addition of sulphite to the mixture of DBNBS and plasma or urine decreased the signal height of the DBNBS radical cation. This could affect the determination of the oxidant in biological samples if there was sulphite contamination in the DBNBS preparation or endogenous sulphite in the biological sample itself. Therefore the dose response effect on addition of sulphite to the reaction mixture was investigated. […]

As for `O=Nc1c(Cl)cc(S(=O)(=O)O)cc1Cl` [DCNBS, 3,5-dichloro-4-nitrosobenzene sulphonate], the “solubility compared with DBNBS” value in data set [1] is on record as “better solubility”.
For the compound `O=S([O-])[O-].[K+].[K+]` [sulphite, dipotassium sulphite], the “reduction in the signal height of the DBNBS radical cation” value in data set [2] (0.08 mM of sulphite in the reaction mixture) is given as 1.4%; in data set [2] (final concentration of 0.4 mM sulphite in the reaction mixture), 6.1%.

For the origin of these results see patent US20040067593A1, “Electron paramagnetic resonance method for diagnosis of active nephritis” (priority 2000, published 2004).
